± gives the expanded uncertainty stated by the source.
Settings: Liquid, Closed cell (Static) method

N [ammonia]
Settings	vapor or sublimation pressure [kPa]
303.12 K	1166 ± 12
313.14 K	1553 ± 16
323.16 K	2030 ± 21
333.13 K	2609 ± 26
343.13 K	3305 ± 34
353.13 K	4132 ± 42
363.12 K	5105 ± 52
373.16 K	6243 ± 63

Reference: the NIST ThermoML archive (doi:10.1021/je8001267)
